Results from a melting point compilation (Tetko et al.; mined from patent text by program, amines drawn as free bases though some values may be those of a salt).

melting point [°C]	Compound
162 to 163	CN1CCN(c2ncc(-c3ccccc3)c(C(=O)N(C)Cc3cc(C(F)(F)F)cc(C(F)(F)F)c3)n2)CC1
261	CCC(=O)C1C(=O)CC(c2ccc(C3CC(=O)C(C(=O)CC)C(=O)C3)cc2)CC1=O (centres undefined)
122 to 124	CCN(CC)CCNc1ccnc2cc(C(F)(F)F)ccc12
91 to 93	CS(=O)(=O)c1nccc(Cl)n1
179 to 180	CN1CCN(Cc2cc(-c3ccc4c(c3)CCO4)nn(Cc3ccc(F)cc3)c2=O)CC1
220 to 222	CCn1c(=N)c(-c2ccsc2)cc2cnc(Nc3ccccc3)nc21
184 to 186	CC(=O)NC(=O)C(SCc1ccccc1)C(c1ccccc1)(c1ccccc1)c1ccccc1 (centres undefined)
156 to 157	COC(=O)NC1CCc2ccsc2C1 (centres undefined)
123 to 125	Fc1cccc(F)c1-c1c(Cl)nc(Cl)n1-c1ccc(Cl)cc1
127 to 129	Clc1ccc(N2CCN(CCCc3c4c(nn3-c3ccccc3)CCCC4)CC2)cc1
230 to 232	COc1nc2cc(Cl)c(Cl)c(C(=O)O)c2nc1OC
169 to 170	CCOC(=O)c1ccc(NC(=O)CNc2ccccc2F)cc1
59 to 61	Cc1ccsc1C(=O)C[N+](=O)[O-]
48 to 51	CC(Br)CCCCN1C(=O)c2ccccc2C1=O (centres undefined)
88.5 to 89.1	CCCCCS(=O)(=O)NC(=O)/C=C/c1ccc(OCCOC)cc1Cc1ncc(Br)s1
240	NCC1CCN(CC(=O)Nc2cccc3c2C(=O)c2c-3n[nH]c2-c2ccc(N3CCOCC3)cc2)CC1
254	c1ccc(Oc2ncc(-c3cnc(-c4ccccc4)[nH]3)cn2)cc1
104 to 108	CNS(=O)(=O)CC(N)=O
126	CCCCc1nc2ccc(C3=NN4CCCC4C3)cc2c(=O)n1Cc1ccc(-c2ccccc2-c2nnn[nH]2)cc1 (centres undefined)
79	Cc1cc(C)cc(OC(=O)C(Cl)c2ccccc2)c1 (centres undefined)
86 to 87	S=C=Nc1cc(Cl)ccc1N1CCOCC1
110 to 112	O=C(O)c1ccc(OC(F)(F)F)c(Cl)c1
97 to 100	COC(=O)COc1ccc(C(O)CNCc2ccc(C(=O)OC)cc2)cc1 (centres undefined)
223 to 225	COc1ccc(C=CC(=O)O)cc1C=O
144 to 146	CCOC(=O)c1ccc(-c2ccc(O)cc2)cc1

melting point [°C]	Compound
230	CCOC(=O)C1=C(C)Nc2nc(N)nc(N)c2C1c1cccc([N+](=O)[O-])c1 (centres undefined)
130 to 132	CCOC(=O)C1=C(C)NC(=S)N(C(=O)OCC)C1c1ccc(OC)cc1 (centres undefined)
103 to 105	CCOC(=O)C(=O)Nc1cc(CC)c(C(=O)OCC)s1
140 to 143	O=S1N=C(NCCCOc2cccc(CN3CCCCC3)c2)C(NCc2cccnc2)=N1 (centres undefined)
198 to 200	C[C@@H]1Cc2cc(N3C[C@H](C(N)=O)OC3=O)ccc2N1C(=O)CO
140 to 142	CCC1c2cccn2-c2ccc(F)cc2N1S(=O)(=O)c1cc(C)c(OC)c(C)c1 (centres undefined)
182 to 184	CCCNC(=O)[C@H](C)C[C@H](O)[C@H](CC1CCCCC1)NC(=O)[C@H](Cc1cscn1)NC(=O)OC(C)(C)C
100 to 101	CN(C)Cc1nc(CSCCNC(=C[N+](=O)[O-])NCC(O)c2ccccc2)cs1 (centres undefined)
214 to 216	CC(=O)Nc1nnc2c3c(c(N4CCCCC4)nn12)CCCC3
354 to 360	Cc1nc2cc(-c3ccc(C=C4SC(=O)NC4=O)cc3)cc(C34CC5CC(CC(C5)C3)C4)c2o1
135 to 136	COC(=O)C=Cc1ccc(OC)c(OCc2nc(-c3ccccc3)oc2C)c1
127 to 128	Oc1nc(-c2ccccc2)sc1CCc1ccccc1
128	O=C(CO)c1ccc(F)c(F)c1Nc1ccc(I)cc1F
182 to 184	C=Cc1cc(O)cc2cc(-c3ccc(O)cc3)oc12
231 to 232	Cc1nnc(-c2ccc3scc(-c4ccc(S(C)(=O)=O)cc4)c3c2)o1
102	CCCCCCCCCCCCCCCCCC(CCC(=O)O)(CCC(=O)O)[N+](=O)[O-]
118 to 120	CC[C@H](C1CC1)n1cc(Cl)nc(N2CCc3cc(OC)cc(Cl)c32)c1=O
124 to 126	CS(=O)(=O)CCCOc1cccc2c1ccn2-c1ccnc(NC2CCC(C(=O)N3CCC(CN)CC3)CC2)n1 (centres undefined)
186	Cc1cc(-c2ccc(C(F)(F)F)cc2)nc(-n2cnc(-c3cccc(S(N)(=O)=O)c3)c2)n1
129 to 130	COC(=O)C(=CO)N(C)C(=O)C=Cc1ccccc1Cl
110 to 112	O=C(O)CCCNC(=O)c1ccccc1NC(=O)c1ccccc1Cl
216 to 218	CC(C)(C)C1=CC(=CC#Cc2ccc(C(=O)O)cc2)C=C(C(C)(C)C)C1=O
126 to 128	CCOCc1cc2cc(Cl)ccc2oc1=Nc1ccc(Cl)cc1
99 to 101	Fc1ccc(CCN2CCC(N3CCc4ccc(Br)cc43)CC2)cc1
212 to 213	O=C(Nc1ccc(C(=O)c2ccccc2)cc1)c1ccc(-c2ccccc2)cc1

melting point [°C]	Compound
57 to 59	COC(=O)CCCCc1ccc(CCNC(C)=O)cc1
201 to 203	COC(=O)NC1Cc2ccc([N+](=O)[O-])cc2C1O (centres undefined)
93 to 94	Clc1ccccc1-c1nc(-c2ccccn2)no1
188 to 192	O=C(NC(=O)c1c(Cl)cccc1Cl)Nc1cncc(C(F)(F)F)n1
92 to 93	O=C1CCCN1C(=O)Oc1ccccc1Cl
56 to 58	Cc1ccc(C(Cl)=NOS(=O)(=O)CCCCl)cc1
77 to 79	Nc1c(Cl)cc(C(O)CNCCCCCCOCCCCc2ncccn2)cc1Cl (centres undefined)
100 to 101	CCOc1cc(OCC)cc(-c2cncn2-c2ccc(S(C)(=O)=O)cc2)c1
151 to 153	Cc1nc2cccc(C3CC3CN3C(=O)c4ccccc4C3=O)c2s1 (centres undefined)
159 to 160	CC(C)(O)c1nnc(-c2ccc3ncn(-c4ccc(OC(F)(F)F)cc4)c3c2)o1
242	O=C(N[C@H]1CC[C@H](CCN2CCN(c3nccc4c3OCC4)CC2)CC1)c1ccc(C(F)(F)F)cc1
114 to 115	COC(=O)C1Oc2ccc(Cl)cc2C(C)(c2ccccc2)O1 (centres undefined)
126 to 129	Cc1oc2c(C)c(C)c(N3Cc4ccccc4C3)c(C)c2c1-c1ccc(C(C)C)cc1
71 to 72	Cc1nccn1-c1nc(-c2ccc(Cl)cc2)c(CCC(=O)OCc2ccccc2)o1
81 to 83	Cc1nc(CC(C)C)c(CN)c(-c2ccc(Cl)cc2)c1C(=O)OC(C)(C)C
119 to 120	CCSc1cc(C)nc(SCC)c1NC(=O)CCCSc1nc2ccccc2s1
218 to 220	O=C(c1ccncc1)N1CCN(Cc2ccc3c(c2)Cc2c(-c4ccsc4)n[nH]c2-3)CC1
148 to 150	C=CCOc1cc(N2C(=O)c3ccccc3C2=O)c(F)cc1Cl
154 to 155	O=[N+]([O-])c1ccc2c(c1)CN(C(c1ccccc1)c1ccccc1)C2
169 to 171	COc1cc(N)c(Cl)cc1C(=O)NC1CN(C)N(C)C1
158 to 160	CS(=O)(=O)c1ccc(-c2cc(F)c(F)cc2Br)cc1
102 to 105	CCCn1c(=O)n(C2CCN(C(=O)OC(C)(C)C)CC2)c2ccccc21
74.5 to 76.3	CC(=O)NC[C@H]1CN(c2ccc(-n3nccc3-c3ccncc3)c(F)c2)C(=O)O1
134 to 137	Cn1nc(-c2cc([N+](=O)[O-])c(Cl)cc2Cl)cc1OC(F)F
112	COC=C(C(=O)OC)N(C)N1CSC(Br)=C1c1ccc(Br)cc1

melting point [°C]	Compound
186	O=C1c2ccccc2C(=O)N1CC1=Nc2ccccc2N(Cc2ccccc2)C(=O)C1
110 to 111	Cc1nc2cnc3cccnc3c2n1CC(C)C
263	NC(=S)C(c1ccc(Cl)cc1)c1c(Cl)cc(-n2ncc(=O)[nH]c2=O)cc1Cl (centres undefined)
168 to 170	CN(C)c1ccc2cc(C(/C=C\NCCO)=C(C#N)C#N)ccc2c1
119 to 120	CCOC(=O)C(c1ccc(Nc2nc(-c3cccc(NC(=O)c4ccc(C(C)(C)C)cc4)c3C)cn(C)c2=O)cc1)N(C)C(C)C (centres undefined)
187 to 188	CCCn1c(=O)c2c(nc(/C=C/c3ccc(O)c(OC)c3)n2C)n(CCC)c1=O
158 to 161	O=C(c1ccc(NC(=O)C(O)(C(F)F)C(F)F)cc1)c1ccccn1
158 to 159	CN1CCC(c2cccc(F)c2)(C(C)(C)O)CC1
101 to 102	Cc1ccc(N2CCN(CCCc3[nH]nc4c3CCC4)CC2)cc1
184 to 185	Cc1nnc(-c2ccc3occ(-c4cnco4)c3c2)o1
142 to 143	CC(C)c1cccc(C(C)C)c1N=C(c1ccccc1)N(CC(=O)c1ccccc1)c1c(C(C)C)cccc1C(C)C
178 to 179	O=C(c1ccccc1Cl)c1cc(Cl)ccc1C(=O)C(Br)CN1C(=O)c2ccccc2C1=O (centres undefined)
178 to 180	O=C(Cc1ccccc1Cl)Nc1ccc(C(=O)N2CCCCc3sccc32)cc1
64 to 66	CCOC(=O)c1ccc(NCCC[Si](C)(C)C)cc1
218 to 220	O=C(O)c1ccc(CN(C2CCCCC2)S(=O)(=O)c2ccc(F)cc2)cc1
188 to 189	O=C(Nc1ccc(C(F)(F)F)cc1)N1CC(c2ncc(Cl)s2)C(c2ccc(F)cc2)=N1 (centres undefined)
221 to 222	CCOC(=O)c1cn2c(ccc3ccc(Cl)cc32)n1
121 to 123	COc1c(C(=O)O)ccc(Cl)c1SC
< 50	N#CCCOc1ccc2c(c1)CCO2
235 to 237	CN(Cc1ccc(NC(=O)C2=Cc3cc(-c4ccc(Cl)c(Cl)c4)ccc3S(=O)(=O)CC2)cc1)C1CCOCC1
> 300	CC(=O)Nc1ccc2c(c1)Cc1cc(=O)[nH]nc1-2
140 to 142	Nc1cc(-c2ccccc2CCN2CCN(c3nccn3-c3ccccc3)CC2)ccn1
198	CC(=O)Nc1c(C)cc2c(nc3n2CCC3)c1[N+](=O)[O-]
188	Cc1cc(C)nc(OC(C)C(=O)NS(=O)(=O)c2ccccc2)n1 (centres undefined)
